Measured values published in patent US11638713B2, “Patentiflorin A analogs as antiviral agents” (priority 2019, dated 2023).
Read-outs that look alike come from different tables or passages of the source.

What was measured:
HIV = assay: microbe, parasite or virus in culture; format: cell-based
A549 cells [1] = tested on: A549 cells
H5N1 virus = assay: microbe, parasite or virus in culture; format: cell-based, H5N1 influenza virus
EBOV (Ebola virus) = assay: microbe, parasite or virus in culture; format: cell-based; conditions: Zaire ebolavirus
[2] = tested on: VSV (vesicular stomatitis virus); assay: microbe, parasite or virus in culture; format: cell-based
A549 cells [3] = assay: cells; conditions: Homo sapiens, A549, read-out: % Inhibition against A549 cells
[4] = tested on: broad HIV clinical strains; conditions: background; read-out: EC50 against broad HIV clinical strains; cited from earlier work
SF162 = assay: HIV-1 clinical strain PBMC assay (p24 ELISA), SF162; format: cell-based; conditions: Human immunodeficiency virus 1, PBMC, read-out: IC50 against SF162
89.6 = assay: HIV-1 clinical strain PBMC assay (p24 ELISA), 89.6; format: cell-based; conditions: Human immunodeficiency virus 1, PBMC, read-out: IC50 against 89.6
Bal = assay: HIV-1 clinical strain PBMC assay (p24 ELISA), Bal; format: cell-based; conditions: Human immunodeficiency virus 1, BAL, read-out: IC50 against Bal
Lav.04 = assay: HIV-1 clinical strain PBMC assay (p24 ELISA), Lav.04; format: cell-based; conditions: Human immunodeficiency virus 1, PBMC, read-out: IC50 against Lav.04
1617-1 = assay: HIV-1 resistant strain PBMC assay (p24 ELISA), 1617-1 (AZT resistant); format: cell-based; conditions: Human immunodeficiency virus 1, PBMC, read-out: IC50 against 1617-1
N119 = assay: HIV-1 resistant strain PBMC assay (p24 ELISA), N119 (nevaripine resistant); format: cell-based; conditions: Human immunodeficiency virus 1, PBMC, read-out: IC50 against N119
[5] = Cytotoxicity against PBMC; format: cell-based; conditions: human
in vitro = conditions: human, CC50 (nM)
[6] = Repeated-dose toxicity study in mice; conditions: 25 and 50 mg/kg, daily i.p. for 28 days
[7] = Human immunodeficiency virus 1, A549

Compound | EC50 (HIV; [7]) [nM] | IC50 (SF162) [nM] | IC50 (89.6) [nM] | IC50 (Bal) [nM] | IC50 (Lav.04) [nM] | IC50 (1617-1) [nM] | IC50 (N119) [nM] | CC50 [5] [nM] | CC50 (in vitro) [nM] | anti-HIV activity in terms of SI values (HIV) | also measured
2″-Acetyl-7-O-β-D-patentiflorin A [Compound 27bc] |  |  |  |  |  |  |  |  |  |  | EC50 (HIV; read-out: EC50): 0.93 nM; CC50 (A549 cells [1]): 1370 nM
Cc1cn([C@H]2C[C@H](N=[N+]=[N-])[C@@H](CO)O2)c(=O)[nH]c1=O [AZT, zidovudine, reference compound] | 2.6 |  |  |  |  |  |  |  |  |  | % Inhibition against H5N1 virus (H5N1 virus; 20 ng/mL): 92.7%; inhibition at 0.02 µg/mL (H5N1 virus; Influenza A virus, H5N1, A549, 20 ng/mL, read-out: % Inhibition against H5N1 virus): 96.5%; EC50 (H5N1 virus; Influenza A virus, H5N1, A549, read-out: EC50 against H5N1 virus): 3.48 nM; EC50 (EBOV (Ebola virus); A549, read-out: EC50 against EBOV): 3.8 nM; inhibition at 0.02 µg/mL (EBOV (Ebola virus); A549, 20 ng/mL, read-out: % Inhibition against EBOV): 93.6%; inhibition at 0.02 µg/mL ([2]; A549, 20 ng/mL, read-out: % Inhibition against VSV): 99.4%; EC50 ([2]; A549, read-out: EC50 against VSV): 7.06 nM; inhibition at 0.02 µg/mL (A549 cells [3]): 1.1%; EC50 [4]: 77 to 95 nM
CCOC(=O)COc1c2c(c(-c3ccc4c(c3)OCO4)c3cc(OC)c(OC)cc13)C(=O)OC2 [Compound 12b] | 207 | 340 | 376 | 458 | 312 | 537 | 638 | > 100000 | > 26800 |  | 
COc1cc2c(OCC#N)c3c(c(-c4ccc5c(c4)OCO5)c2cc1OC)C(=O)OC3 [Compound 17a] | 72 | 122 | 134 | 168 | 151 | 174 | 203 | > 100000 | 45200 | much more improved anti-HIV activity | excised organs at the end of the experiment [6]: appeared as normal; toxic symptoms (weight loss, skin damage, food and water intake impairment and postual abnormality) and mortality [6]: no toxic symptoms
COc1cc2c(B3OC(C)(C)C(C)(C)O3)c3c(c(-c4ccc5c(c4)OCO5)c2cc1OC)C(=O)OC3 [Compound 19a] | 77.2 | 154 | 143 | 188 | 138 | 152 | 185 | > 100000 | 10500 | much more improved anti-HIV activity | 
C#Cc1c2c(c(-c3ccc4c(c3)OCO4)c3cc(OC)c(OC)cc13)C(=O)OC2 [Compound 21] | 17.8 | 23.9 | 28.7 | 26.5 | 30.1 | 39.3 | 42.1 | 25600 | 207 |  | 
COc1cc2c(OC3OC[C@@H](OC(C)=O)[C@H](OC(C)=O)[C@H]3OC(C)=O)c3c(c(-c4ccc5c(c4)OCO5)c2cc1OC)C(=O)OC3 (stereo partly drawn) [Compound 25a, Peracetylated 7β-D-xylosyloxydiphyllin] | 7 |  |  |  |  |  |  |  | 3080 | much more improved anti-HIV activity | excised organs at the end of the experiment [6]: appeared as normal; toxic symptoms (weight loss, skin damage, food and water intake impairment and postual abnormality) and mortality [6]: no toxic symptoms
